Measured values from patent publication US7851474B2, “Dipiperazinyl ketones and related analogues” (Neurogen Corporation, priority 2005, dated 2010).

What follows are molecules tested against T1, chimeric human H3 receptor (Homo sapiens, UniProt Q9Y5N1, E19D) (assay: Chimeric human H3 receptor screening GTP binding assay (inhibition of histamine-stimulated GTP-gamma35S binding, Example 8)). Settings: 1 h; Table II "Ki", symbol "+": assay described in Example 8; read-out: percent inhibition of agonist-induced GTP-gammaS binding to H3.
T1 construct: made in house; host or cells: Sf9 insect cells (baculovirus infection); P2 membrane preparation
T1 sequence (Q9Y5N1 with tags, fused parts or gaps E19D): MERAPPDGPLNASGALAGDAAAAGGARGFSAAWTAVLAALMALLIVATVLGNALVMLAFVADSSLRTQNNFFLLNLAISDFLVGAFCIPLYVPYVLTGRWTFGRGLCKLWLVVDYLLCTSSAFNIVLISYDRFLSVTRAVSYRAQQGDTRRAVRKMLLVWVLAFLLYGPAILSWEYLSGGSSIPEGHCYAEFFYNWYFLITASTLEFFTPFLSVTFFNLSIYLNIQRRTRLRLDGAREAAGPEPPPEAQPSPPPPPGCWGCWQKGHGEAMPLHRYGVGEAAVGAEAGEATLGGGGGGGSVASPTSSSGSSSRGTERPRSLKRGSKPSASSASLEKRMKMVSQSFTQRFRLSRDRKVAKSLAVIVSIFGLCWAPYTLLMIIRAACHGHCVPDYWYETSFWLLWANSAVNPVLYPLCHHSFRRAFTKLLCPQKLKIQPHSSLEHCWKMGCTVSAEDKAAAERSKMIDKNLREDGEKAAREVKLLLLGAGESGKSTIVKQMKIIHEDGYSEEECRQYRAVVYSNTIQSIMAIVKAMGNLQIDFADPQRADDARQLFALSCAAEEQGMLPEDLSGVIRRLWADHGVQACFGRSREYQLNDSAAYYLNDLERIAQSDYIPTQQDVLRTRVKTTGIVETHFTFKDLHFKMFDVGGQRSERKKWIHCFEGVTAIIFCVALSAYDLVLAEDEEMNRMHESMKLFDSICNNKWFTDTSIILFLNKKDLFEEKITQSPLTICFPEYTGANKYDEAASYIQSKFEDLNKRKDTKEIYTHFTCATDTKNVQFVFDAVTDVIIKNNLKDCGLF
Type: biochemical
How it was run: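 Data are percent inhibition of the 1 μM histamine-stimulated GTP-gamma35S (125 pM) binding, after non-specific binding (10 uM GTP-gammaS) is subtracted. Test compound at 4 μM. Incubation was 60 min at room temperature with Sf9 membranes bearing receptor plus G-protein subunits, buffer pH 7.4 with 10 μM GDP, and filtration read-out.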
For `CC(C)Oc1ccc(C(=O)N2CCN(CC(=O)N3CCN(C4CCC4)CC3)CC2)cc1` [Compound 776, 1-cyclobutyl-4-{[4-(4-isopropoxybenzoyl)piperazin-1-yl]acetyl}piperazine], the inhibition at 4 µM was over 90%.
`CC(C)c1ccc(C(=O)N2CCN(CC(=O)N3CCN(C4CCC4)CC3)CC2)cc1` [Compound 777, 1-cyclobutyl-4-{[4-(4-isopropylbenzoyl)piperazin-1-yl]acetyl}piperazine] showed an inhibition at 4 µM of over 90%.
`Cc1ccc(C(=O)N2CCN(CC(=O)N3CCN(C4CCC4)CC3)CC2)cc1` [Compound 783, 1-cyclobutyl-4-{[4-(4-methylbenzoyl)piperazin-1-yl]acetyl}piperazine] was tested, and the inhibition at 4 µM was over 90%.
`CCCOc1ccc(C(=O)N2CCN(CC(=O)N3CCN(C4CCC4)CC3)CC2)cc1` [Compound 788, 1-cyclobutyl-4-{[4-(4-propoxybenzoyl)piperazin-1-yl]acetyl}piperazine] gave an inhibition at 4 µM of over 90%.
Molecule `CCCc1ccc(C(=O)N2CCN(CC(=O)N3CCN(C4CCC4)CC3)CC2)cc1` [Compound 790, 1-cyclobutyl-4-{[4-(4-propylbenzoyl)piperazin-1-yl]acetyl}piperazine] has an inhibition at 4 µM of over 90%.
In the case of `O=C(CN1CCN(C(=O)C(c2ccccc2)c2ccccc2)CC1)N1CCN(C2CCC2)CC1` [Compound 794, 1-cyclobutyl-4-{[4-(diphenylacetyl)piperazin-1-yl]acetyl}piperazine], the inhibition at 4 µM is reported as over 90%.

Same assay, conditions: 1 h; Table II, "+" in the column headed Ki; assay of Example 8; read-out: percent inhibition of agonist-induced GTP-gammaS binding to H3
With `COc1cccc(OC)c1C(=O)N1CCN(CC(=O)N2CCN(C3CCC3)CC2)CC1` [Compound 694, 1-cyclobutyl-4-{[4-(2,6-dimethoxybenzoyl)piperazin-1-yl]acetyl}piperazine] the inhibition at 4 µM was over 90%.
`Cc1cccc(C)c1C(=O)N1CCN(CC(=O)N2CCN(C3CCC3)CC2)CC1` [Compound 696, 1-cyclobutyl-4-{[4-(2,6-dimethylbenzoyl)piperazin-1-yl]acetyl}piperazine] was tested, and the inhibition at 4 µM was over 90%.
For `CCOc1ccccc1C(=O)N1CCN(CC(=O)N2CCN(C3CCC3)CC2)CC1` [Compound 699, 1-cyclobutyl-4-{[4-(2-ethoxybenzoyl)piperazin-1-yl]acetyl}piperazine], the inhibition at 4 µM was over 90%.
Molecule `CCC(CC)(C(=O)N1CCN(CC(=O)N2CCN(C3CCC3)CC2)CC1)c1ccccc1` [Compound 702, 1-cyclobutyl-4-{[4-(2-ethyl-2-phenylbutanoyl)piperazin-1-yl]acetyl}piperazine] has an inhibition at 4 µM of over 90%.
Work on `Cc1cccc(C(=O)N2CCN(CC(=O)N3CCN(C4CCC4)CC3)CC2)c1F` [Compound 703, 1-cyclobutyl-4-{[4-(2-fluoro-3-methylbenzoyl)piperazin-1-yl]acetyl}piperazine] yielded an inhibition at 4 µM of over 90%.
`O=C(CN1CCN(C(=O)c2ccccc2F)CC1)N1CCN(C2CCC2)CC1` [Compound 706, 1-cyclobutyl-4-{[4-(2-fluorobenzoyl)piperazin-1-yl]acetyl}piperazine] was tested, and the inhibition at 4 µM was over 90%.
`COc1ccccc1C(=O)N1CCN(CC(=O)N2CCN(C3CCC3)CC2)CC1` [Compound 711, 1-cyclobutyl-4-{[4-(2-methoxybenzoyl)piperazin-1-yl]acetyl}piperazine] gave an inhibition at 4 µM of over 90%.
For `Cc1oc(-c2ccccc2)cc1C(=O)N1CCN(CC(=O)N2CCN(C3CCC3)CC2)CC1` [Compound 713, 1-cyclobutyl-4-{[4-(2-methyl-5-phenyl-3-furoyl)piperazin-1-yl]acetyl}piperazine], the inhibition at 4 µM was over 90%.
In the case of `Cc1ccccc1C(=O)N1CCN(CC(=O)N2CCN(C3CCC3)CC2)CC1` [Compound 714, 1-cyclobutyl-4-{[4-(2-methylbenzoyl)piperazin-1-yl]acetyl}piperazine], the inhibition at 4 µM is reported as over 90%.
`O=C(CN1CCN(C(=O)c2ccc3ccccc3c2)CC1)N1CCN(C2CCC2)CC1` [Compound 716, 1-cyclobutyl-4-{[4-(2-naphthoyl)piperazin-1-yl]acetyl}piperazine] was tested, and the inhibition at 4 µM was over 90%.
In the case of `O=C(Cc1ccc2ccccc2c1)N1CCN(CC(=O)N2CCN(C3CCC3)CC2)CC1` [Compound 717, 1-cyclobutyl-4-{[4-(2-naphthylacetyl)piperazin-1-yl]acetyl}piperazine], the inhibition at 4 µM is reported as over 90%.
`O=C(CN1CCN(C(=O)c2ccccc2Oc2ccccc2)CC1)N1CCN(C2CCC2)CC1` [Compound 718, 1-cyclobutyl-4-{[4-(2-phenoxybenzoyl)piperazin-1-yl]acetyl}piperazine] showed an inhibition at 4 µM of over 90%.
Molecule `CCC(C(=O)N1CCN(CC(=O)N2CCN(C3CCC3)CC2)CC1)c1ccccc1` (stereo not shown) [Compound 721, 1-cyclobutyl-4-{[4-(2-phenylbutanoyl)piperazin-1-yl]acetyl}piperazine] has an inhibition at 4 µM of over 90%.
With `CCCOc1ccccc1C(=O)N1CCN(CC(=O)N2CCN(C3CCC3)CC2)CC1` [Compound 722, 1-cyclobutyl-4-{[4-(2-propoxybenzoyl)piperazin-1-yl]acetyl}piperazine] the inhibition at 4 µM was over 90%.
Work on `O=C(CN1CCN(C(=O)c2cccs2)CC1)N1CCN(C2CCC2)CC1` [Compound 723, 1-cyclobutyl-4-{[4-(2-thienylcarbonyl)piperazin-1-yl]acetyl}piperazine] yielded an inhibition at 4 µM of over 90%.
With `COc1cc(C(=O)N2CCN(CC(=O)N3CCN(C4CCC4)CC3)CC2)cc(OC)c1OC` [Compound 724, 1-cyclobutyl-4-{[4-(3,4,5-trimethoxybenzoyl)piperazin-1-yl]acetyl}piperazine] the inhibition at 4 µM was over 90%.
With `O=C(CN1CCN(C(=O)c2ccc(Cl)c(Cl)c2)CC1)N1CCN(C2CCC2)CC1` [Compound 726, 1-cyclobutyl-4-{[4-(3,4-dichlorobenzoyl)piperazin-1-yl]acetyl}piperazine] the inhibition at 4 µM was over 90%.
Molecule `CCOc1ccc(C(=O)N2CCN(CC(=O)N3CCN(C4CCC4)CC3)CC2)cc1OCC` [Compound 728, 1-cyclobutyl-4-{[4-(3,4-diethoxybenzoyl)piperazin-1-yl]acetyl}piperazine] has an inhibition at 4 µM of over 90%.
With `O=C(CN1CCN(C(=O)c2ccc(F)c(F)c2)CC1)N1CCN(C2CCC2)CC1` [Compound 729, 1-cyclobutyl-4-{[4-(3,4-difluorobenzoyl)piperazin-1-yl]acetyl}piperazine] the inhibition at 4 µM was over 90%.
In the case of `COc1ccc(C(=O)N2CCN(CC(=O)N3CCN(C4CCC4)CC3)CC2)cc1OC` [Compound 731, 1-cyclobutyl-4-{[4-(3,4-dimethoxybenzoyl)piperazin-1-yl]acetyl}piperazine], the inhibition at 4 µM is reported as over 90%.
`Cc1ccc(C(=O)N2CCN(CC(=O)N3CCN(C4CCC4)CC3)CC2)cc1C` [Compound 734, 1-cyclobutyl-4-{[4-(3,4-dimethylbenzoyl)piperazin-1-yl]acetyl}piperazine] showed an inhibition at 4 µM of over 90%.
`COc1c(Cl)cc(Cl)c(OC)c1C(=O)N1CCN(CC(=O)N2CCN(C3CCC3)CC2)CC1` [Compound 737, 1-cyclobutyl-4-{[4-(3,5-dichloro-2,6-dimethoxybenzoyl)piperazin-1-yl]acetyl}piperazine] showed an inhibition at 4 µM of over 90%.
Work on `O=C(CN1CCN(C(=O)c2cc(Cl)cc(Cl)c2)CC1)N1CCN(C2CCC2)CC1` [Compound 738, 1-cyclobutyl-4-{[4-(3,5-dichlorobenzoyl)piperazin-1-yl]acetyl}piperazine] yielded an inhibition at 4 µM of over 90%.
`COc1cc(OC)cc(C(=O)N2CCN(CC(=O)N3CCN(C4CCC4)CC3)CC2)c1` [Compound 741, 1-cyclobutyl-4-{[4-(3,5-dimethoxybenzoyl)piperazin-1-yl]acetyl}piperazine] showed an inhibition at 4 µM of over 90%.
Work on `Cc1cc(C)cc(C(=O)N2CCN(CC(=O)N3CCN(C4CCC4)CC3)CC2)c1` [Compound 742, 1-cyclobutyl-4-{[4-(3,5-dimethylbenzoyl)piperazin-1-yl]acetyl}piperazine] yielded an inhibition at 4 µM of over 90%.
Work on `COc1ccc(C(=O)N2CCN(CC(=O)N3CCN(C4CCC4)CC3)CC2)cc1F` [Compound 748, 1-cyclobutyl-4-{[4-(3-fluoro-4-methoxybenzoyl)piperazin-1-yl]acetyl}piperazine] yielded an inhibition at 4 µM of over 90%.
`O=C(CN1CCN(C(=O)c2cccc(F)c2)CC1)N1CCN(C2CCC2)CC1` [Compound 752, 1-cyclobutyl-4-{[4-(3-fluorobenzoyl)piperazin-1-yl]acetyl}piperazine] gave an inhibition at 4 µM of over 90%.
`COc1cccc(C(=O)N2CCN(CC(=O)N3CCN(C4CCC4)CC3)CC2)c1` [Compound 757, 1-cyclobutyl-4-{[4-(3-methoxybenzoyl)piperazin-1-yl]acetyl}piperazine] was tested, and the inhibition at 4 µM was over 90%.
Work on `CC(C)C(C(=O)N1CCN(CC(=O)N2CCN(C3CCC3)CC2)CC1)c1ccccc1` (stereo not shown) [Compound 760, 1-cyclobutyl-4-{[4-(3-methyl-2-phenylbutanoyl)piperazin-1-yl]acetyl}piperazine] yielded an inhibition at 4 µM of over 90%.
Molecule `Cc1cccc(C(=O)N2CCN(CC(=O)N3CCN(C4CCC4)CC3)CC2)c1` [Compound 761, 1-cyclobutyl-4-{[4-(3-methylbenzoyl)piperazin-1-yl]acetyl}piperazine] has an inhibition at 4 µM of over 90%.
Molecule `O=C(CN1CCN(C(=O)c2cccc(Oc3ccccc3)c2)CC1)N1CCN(C2CCC2)CC1` [Compound 764, 1-cyclobutyl-4-{[4-(3-phenoxybenzoyl)piperazin-1-yl]acetyl}piperazine] has an inhibition at 4 µM of over 90%.
For `O=C(CN1CCN(C(=O)c2ccsc2)CC1)N1CCN(C2CCC2)CC1` [Compound 765, 1-cyclobutyl-4-{[4-(3-thienylcarbonyl)piperazin-1-yl]acetyl}piperazine], the inhibition at 4 µM was over 90%.
`Cc1cc(C(=O)N2CCN(CC(=O)N3CCN(C4CCC4)CC3)CC2)oc1C` [Compound 766, 1-cyclobutyl-4-{[4-(4,5-dimethyl-2-furoyl)piperazin-1-yl]acetyl}piperazine] showed an inhibition at 4 µM of over 90%.
`O=C(CN1CCN(C(=O)c2ccc(F)cc2)CC1)N1CCN(C2CCC2)CC1` [Compound 772, 1-cyclobutyl-4-{[4-(4-fluorobenzoyl)piperazin-1-yl]acetyl}piperazine] was tested, and the inhibition at 4 µM was over 90%.
